What was measured:
[1] = test system: CTL (IFNγ-secreting cells/total CD8 positive cells); test: Evaluation of CTL induction rate, ICS method, after immunization of mice; type: in vivo, C57BL/6N mice; conditions: antigen peptide (80 μg); MPL content 0.227 or equivalent; DLPC, deoxycholic acid (160 nmol); subcutaneous once; FIGS. 3 and 4
Method: Administration (100 μL/head) was performed by subcutaneous injection at one position on the back under anesthesia. […] For evaluation of cell-mediated immunity, administration was performed once and the assay was performed seven days after administration. For evaluation of humoral immunity, administration was performed twice. The second administration was performed 14 days after the first administration, and assay was performed seven days after the second administration.
The mice were sacrificed on the seventh day after the last administration and had its spleen harvested. The spleen was given RPMI medium (3.0 mL) containing 10% serum and then treated by the BD Falcon cell strainer. Thus there was obtained a suspension of cells. […] The cells were dispersed into RPMI medium containing 10% serum. The number of cells was counted. Thus there was obtained a dispersion of spleen cells.
For restimulation of the antigen, 10% serum-containing RPMI medium (100 μL) containing OVA peptide (40 μg/mL) was added, followed by incubation for three hours. Then, BD GolgiPlug was added such that its concentration was 0.2 μL/100 μL. Cell culture was performed overnight. In the case where the restimulation was not given, a 10% serum-containing RPMI medium not containing OVA peptide was used.
After washing, the cells were stained with Anti-CD8aPE (at 4° C. for 30 minutes), followed by washing again. Then the cells were permeabilized with Cytofix/Cytoperm. After washing, the cells were stained with Anti-IFNγFITC (at 4° C. for 30 minutes). […] CTL induction rate was calculated in terms of the ratio between the IFNγ secreting cells and the total CD8 positive cells.
It is known that MPL activates innate immune system and functions as an adjuvant even when used alone. It is also known that MPL induces cell-mediated immunity. Thus, a comparison was made as to the induction of cell-mediated immunity between MPL used alone and MPL used in combination with a pH-sensitive carrier in the form of the adjuvant composition. Each of the MPL and the adjuvant composition is administered together with an antigen. […] The above-mentioned solution or dispersion was subcutaneously administered once to the back of C57BL/6N mice, and the CTL induction rate was obtained according to the ICS method. The CTL induction rate is expressed in terms of the ratio of the IFNγ-secreting cells to the total CD8 positive cells in a specific area which is hardly affected by dead cells (IFNγ-secreting cells/total CD8 positive cells).

[2] = test system: CD80; test: Evaluation of stimulus to activate innate immune system: expression of CD80 in cultured mice spleen cells (flow cytometry); conditions: solution (5 μL) of sample added alone: peptide, OVA 800 μg/mL, DLPC 1000 nmol/mL, deoxycholic acid 1600 nmol/mL; FIG. 8(B)
Method: The evaluation of stimulus to activate innate immune system was performed as follows.
A spleen was harvested from C57BL/6N mice. The harvested spleen was injected with 500 μL of collagenase solution, 2 mg/mL (prepared with RPMI medium) followed by incubation at 37° C. for 30 minutes. The spleen was made into cell suspension by treatment with BD Falcon cell strainer. The cells underwent hemolysis with RBC lysis buffer, followed by washing with RPMI medium. The cells were dispersed into RPMI medium, and the number of cells was counted. The cells were used for the subsequent procedure.
The cells were inoculated into a 96-well dish such that 1.0×10^6 cells/100 μL. The cell dispersion was given 100 μL of RPMI medium containing a dispersion of different kind, followed by incubation overnight. These procedures were performed by using serum-free RPMI medium.
The cells were recovered and washed with BD stain buffer. Then, the cells underwent incubation together with Anti-CD11cFITC, 0.25 μg/100 μL (4° C. for 30 minutes), so that the cells were stained. After washing, the cells underwent again incubation with Anti-CD80PE, Anti-CD86PE, or Anti-CD40PE, 0.25 μg/100 μL (4° C. for 30 minutes), so that the cells were stained. After washing at least more than three times, the cells were evaluated by using the flow cytometer (Cytomics FC500, Software: CXP software ver. 2).

[3] = test system: IFNγ-secreting cells in the spleen; test: ELIspot method (IFNγ spots) after immunization of mice; type: in vivo, C57BL/6N mice; conditions: antigen OVA peptide; DLPC, deoxycholic acid (160 nmol), MPL content 0.227; 2×10^6 cells/well; FIG. 2
Method: Administration (100 μL/head) was performed by subcutaneous injection at one position on the back under anesthesia. The dose of the amphipathic substance was 100 nmol/head; the dose of the pH-sensitive compound was 10 to 640 nmol/head; MPL content was 0.0227 to 22.7 nmol/head; and the amount of the antigen was 3.2 to 400 μg/head. For evaluation of cell-mediated immunity, administration was performed once and the assay was performed seven days after administration. For evaluation of humoral immunity, administration was performed twice. The second administration was performed 14 days after the first administration, and assay was performed seven days after the second administration.
The mice were sacrificed on the seventh day after the last administration and had its spleen harvested. […] The number of cells was counted. […]
The ELIspot method was practiced by using the Mouse IFNγ ELISPOT Set. One day before cell inoculation, the 96-well ELIspot plate was allowed to adsorb the detection antibody attached to the kit, so that the plate was made ready for use. […]
Samples used for comparison include a solution of the peptide alone, a dispersion of the pH-sensitive carrier (DLPC-deoxycholic acid) and the peptide, and a solution of incomplete Freund's adjuvant (IFA) and peptide. […] The number of IFNγ-secreting cells in the spleen was counted, and the CTL induction was evaluated.

Sequence: SIINFEKL [peptide alone]
- CTL induction rate [1]: 0.14%
- fluorescence intensity of CD80PE compared with PBS [2]: remained unchanged from that in the case where PBS was added
- number of IFNγ spots compared with untreated sample [3]: equivalent number of spots as the untreated sample
